{
  "source": "patent US20120129843A1",
  "about": "“PYRIDYL-THIAZOLYL INHIBITORS OF PRO-MATRIX METALLOPROTEINASE ACTIVATION” (priority 2010, published 2012)",
  "key": {"[1]": {"biological_target": "T1, MMP9 mediated gelatinase activity in the livers (Rattus norvegicus, UniProt P50282)", "T1 construct": "from tissue; host or cells: frozen liver sections of female Lewis rats", "T1 sequence (P50282 20-708)": "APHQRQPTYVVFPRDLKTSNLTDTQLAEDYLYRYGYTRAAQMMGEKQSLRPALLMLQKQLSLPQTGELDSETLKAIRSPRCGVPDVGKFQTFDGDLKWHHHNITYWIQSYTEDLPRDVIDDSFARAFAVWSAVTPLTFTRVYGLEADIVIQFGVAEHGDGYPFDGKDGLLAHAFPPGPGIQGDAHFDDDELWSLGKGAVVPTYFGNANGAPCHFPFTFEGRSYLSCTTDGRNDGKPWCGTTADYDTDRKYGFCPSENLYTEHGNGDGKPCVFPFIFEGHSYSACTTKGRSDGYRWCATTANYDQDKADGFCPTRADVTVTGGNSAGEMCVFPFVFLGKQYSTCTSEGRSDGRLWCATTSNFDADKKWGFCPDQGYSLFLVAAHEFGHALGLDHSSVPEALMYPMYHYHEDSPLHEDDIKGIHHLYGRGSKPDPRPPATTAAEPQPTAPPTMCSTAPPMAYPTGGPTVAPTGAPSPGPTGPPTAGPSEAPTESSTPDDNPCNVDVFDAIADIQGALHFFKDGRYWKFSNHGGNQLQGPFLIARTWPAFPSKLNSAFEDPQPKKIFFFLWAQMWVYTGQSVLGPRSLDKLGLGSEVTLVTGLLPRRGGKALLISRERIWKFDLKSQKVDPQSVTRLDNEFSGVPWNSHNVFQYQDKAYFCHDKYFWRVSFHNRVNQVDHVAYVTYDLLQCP", "test": "In situ zymography of gelatinase activity in livers of SCW-induced rats dosed with compound", "format": "in vivo", "settings": "for Intensity, Mean / Intensity, Rat 1 / Intensity, Rat 2 / Intensity, Rat 3: SCW, Day 25-28", "excerpt": "Compound-α Reduced MMP9 Mediated Gelatinase Activity in the Livers of Rats with SCW Arthritis In situ zymography provides an alternative approach to assess active MMP9 in tissues (Frederiks). Tissue sections are overlain with fluorescene-conjugated gelatin wherein the conjugation is sufficiently dense to cause the fluorescene to be dye-quenched (DQ). Proteolytic degradation of the DQ-gelatin releases the fluorescene from the quenching effect giving rise to bright green fluorescence at the site of degradation. Because in situ zymography requires the use of frozen sections, calcified tissues are problematic. However, an additional feature of the SCW arthritis model is the development of hepatic granulomatous disease (J Immunol; 1986; 137:2199-2209), and MMP9 reportedly plays a role in macrophage recruitment in the granulomas response to mycobacteria (Infect Immun; 2006; 74:6135-6144). Consequently, granulomatous livers from SCW-treated rats were assessed for active MMP9 by in situ zymography.\nAs described above, Female Lewis (LEW/N) rats, 5-6 weeks of age (80-100 g) were injected (i.p.) with saline or SCW PG-PS. On day 28, when the granulomatous response was well established, animals were sacrificed and livers were frozen in OCT cryo-sectioning medium and 10 μm sections were cut on a Cryome HM 500 M cryotome and mounted on glass microscope slides. Sections were air dried briefly. MMP9 was confirmed as the source of the gelatinase activity in the liver by treating liver sections with monoclonal antibodies directed against the active site of the two major gelatinases MMP9 and MMP2. Liver sections overlain with 50 μL of 100 μg/mL neutralizing mouse monoclonal antibodies directed against MMP9 (Calbiochem, clone 6-6B), or MMP2 (Millipore, clone CA-4001), or with PBS for 1 hr at room temperature. Tissues were rinsed once with PBS, blotted, and briefly air dried and then overlain with DQ-gelatin (Invitrogen) dissolved to 1 mg/mL in deionized water and then diluted 1:10 in 1% wt/vol low gelling point agarose type VII (Sigma) in PBS. The sections were covered with coverslips, incubated in the dark at room temperature for 20 min, and imaged on an Olympus IX80 inverted microscope fitted with fluorescence optics, using SlideBook™ imaging software (Intelligent Imaging Innovations, Inc., Philadelphia, Pa.; version 5.0). Fluorescence intensity was determined (Table 8). When compared to a saline-treated rat, gelatinase activity was abundantly expressed in granulomatous liver sections obtained from a rat with SCW arthritis.\nNext, liver in situ zymography was used to assess the relative presence of active MMP9 in rats dosed with vehicle vs. Compound-α. Female Lewis (LEW/N) rats, 5-6 weeks of age (80-100 g) were injected (i.p.) with saline or SCW PG-PS. Commencing on day 25, randomized groups of rats (n=3 rats/group) received vehicle or 20 or 50 mg/kg Compound-α BID by oral gavage. Vehicle consisted of an aqueous mixture containing 2% (v:v) N-methylpyrrolidone, 5% (v:v) glycerine, and 20% (w:v) captisol. Treatment continued daily through the morning of day 28. Four hrs after the AM dose on day 28, rats were sacrificed and livers assessed for active MMP9 by in situ zymography (Table 9). Gelatinase activity was increased markedly in SCW-induced rats, but activity was reduced by approximately 80% in animals treated with 50 mg/kg Compound-α."}, "[2]": {"biological_target": "T2, MMP9 processing by HFL-1 cells (Homo sapiens, UniProt P14780)", "T2 construct": "host or cells: HFL-1 human fetal lung fibroblasts, TNFα plus neutrophil elastase", "T2 sequence (P14780 20-707)": "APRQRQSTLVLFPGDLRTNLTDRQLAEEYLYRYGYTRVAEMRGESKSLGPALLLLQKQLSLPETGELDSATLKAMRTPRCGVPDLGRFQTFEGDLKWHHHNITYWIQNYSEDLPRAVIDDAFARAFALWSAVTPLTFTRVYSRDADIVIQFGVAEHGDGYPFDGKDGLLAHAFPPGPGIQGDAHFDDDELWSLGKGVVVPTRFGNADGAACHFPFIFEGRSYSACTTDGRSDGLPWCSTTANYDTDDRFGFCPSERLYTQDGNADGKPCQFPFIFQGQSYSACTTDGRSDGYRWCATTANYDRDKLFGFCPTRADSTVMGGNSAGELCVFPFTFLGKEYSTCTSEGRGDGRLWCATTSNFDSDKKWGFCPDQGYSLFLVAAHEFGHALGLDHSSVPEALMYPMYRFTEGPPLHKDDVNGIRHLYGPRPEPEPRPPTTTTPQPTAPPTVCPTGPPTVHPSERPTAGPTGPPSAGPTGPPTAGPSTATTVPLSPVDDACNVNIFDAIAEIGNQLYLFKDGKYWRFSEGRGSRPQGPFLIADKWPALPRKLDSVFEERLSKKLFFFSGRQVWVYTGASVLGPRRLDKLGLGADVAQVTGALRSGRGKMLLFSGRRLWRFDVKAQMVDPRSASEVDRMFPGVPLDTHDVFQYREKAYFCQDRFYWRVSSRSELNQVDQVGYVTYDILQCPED", "test": "Activation of proMMP9 by human fetal lung fibroblast (HFL-1) cultures (Western blot)", "format": "cell-based", "settings": "3.3 μM, 30 nM elastase, final 72 hrs; mAb-L51/82", "method": "Compound-α was assessed additionally for ability to block the maturation of proMMP9 to active MMP9 in cultures of human fetal lung fibroblasts (HFL-1, American Type Culture Collection #CCL-153). Unlike rat synoviocytes, HFL-1 cells were unable to process proMMP9 to the active form without addition of neutrophil elastase. […] Rather, the function of elastase in this assay may be to inactivate tissue inhibitors of matrix metalloproteinases (TIMPs) that repress endogenous pathways of MMP9 activation (Am J Respir Crit. Care Med; 1999; 159:1138-46).\nHLF-1 were maintained in monolayer culture in DMEM with 10% FCS and were used between passage numbers 5-15. HLF-1 were embedded in collagen gels as described for rat SCW synoviocytes (vida supra). Half mL gels containing 0.4 million cells were dislodged into wells of 12 well Costar plates containing 1 mL/well of DMEM adjusted to contain 0.05% BSA and 100 ng/mL human TNFα (R&D Systems Cat #210-TA/CF). After overnight culture (37° C. and 5% CO2) wells were adjusted to contain an additional 0.5 mL of DMEM containing 0.05% BSA and with or without 13.2 μM Compound-α (final concentration was 3.3 μM Compound-α). Next, cultures were adjusted to contain 30 nM human elastase (Innovative Research). The plates were cultured an additional 72 hrs, at which time MMP9 secreted into the conditioned media was bound to gelatin-sepharose and evaluated by Western blot analysis as described for the rat synoviocyte cultures (vida supra). mAb-51/82 detected three forms of MMP9 in HFL-1 cultures.\nThese included a form of approximately 100 kD with mobility similar to recombinant rat proMMP9, an approximately 80 kD form with mobility similar to rat active MMP9, and an approximately 86 kD intermediate form. In the absence of Compound-α, most of the MMP9 was present as the 80 kD form. In the presence of Compound-α, the 80 kD form was a minor fraction of the total signal while nearly half of the signal were contributed each by the 100 kD and 86 kD forms. […]\nA second experiment was performed to determine if the 80 kD form was mature active MMP9 and to determine the potency of Compound-α as an inhibitor of MMP9 maturation in this assay. HFL-1 cells embedded in collagen gels were cultured as described above in the presence of TNFα overnight and the cultures were then adjusted to contain 30 nM elastase and graded concentrations of Compound-α for an additional 72 hrs at which time MMP9 secreted into the conditioned media was bound to gelatin-sepharose and evaluated by Western blot analysis for active MMP9 using pAb-1246 raised against the N-terminal neoepitope of active MMP9 (Table 5). In the absence of Compound-α, pAb-1246 readily detected MMP9 with an electrophoretic mobility of approximately 80 kD. […]"}},
  "data": [
    {"compound": "Cc1nc(C)c(-c2csc(Nc3cc(S(N)(=O)=O)ccc3OC(C)C)n2)s1", "note": "[Compound-α, 3-(2′,4′-Dimethyl-[4,5′]bithiazolyl-2-ylamino)-4-isopropoxy-benzenesulfonamide.HBr]", "values": [
      {"measurement": "reduction of liver gelatinase activity", "setting": "[1]; 50 mg/kg, SCW-induced rats", "value": "approximately 80%"},
      {"measurement": "Intensity, Mean", "setting": "[1]; 20 mg/kg BID oral", "value": 55.2, "unit": "RLU × 10^6"},
      {"measurement": "Intensity, Rat 1", "setting": "[1]; 20 mg/kg BID oral", "value": 43.0, "unit": "RLU × 10^6"},
      {"measurement": "Intensity, Rat 2", "setting": "[1]; 20 mg/kg BID oral", "value": 69.0, "unit": "RLU × 10^6"},
      {"measurement": "Intensity, Rat 3", "setting": "[1]; 20 mg/kg BID oral", "value": 53.7, "unit": "RLU × 10^6"},
      {"measurement": "Intensity, Mean", "setting": "[1]; 50 mg/kg BID oral", "value": 11.1, "unit": "RLU × 10^6"},
      {"measurement": "Intensity, Rat 1", "setting": "[1]; 50 mg/kg BID oral", "value": 3.2, "unit": "RLU × 10^6"},
      {"measurement": "Intensity, Rat 2", "setting": "[1]; 50 mg/kg BID oral", "value": 25.6, "unit": "RLU × 10^6"},
      {"measurement": "Intensity, Rat 3", "setting": "[1]; 50 mg/kg BID oral", "value": 4.5, "unit": "RLU × 10^6"},
      {"measurement": "Percent of total signal, 80 kD", "setting": "[2]", "value": 7, "unit": "%"},
      {"measurement": "Percent of total signal, 86 kD", "setting": "[2]", "value": 47, "unit": "%"},
      {"measurement": "Percent of total signal, 100 kD", "setting": "[2]", "value": 46, "unit": "%"},
      {"measurement": "Signal, Total", "setting": "[2]", "value": 91346, "unit": "INT*mm^2"}
    ]}
  ]
}
